The species named for this assay is Rattus norvegicus. Put plainly: Antiplatelet activity in Sprague-Dawley rat plasma assessed as shear induced platelet aggregation at 10 uM. It is filed as functional.
`C=C(COC(=O)/C=C/c1ccc(O)c(O)c1)C(O)CO[C@@H]1O[C@H](CO)[C@@H](O)[C@H](O)[C@H]1O` (stereo partly drawn) [PUBESCENOSIDE A]: the Activity is reported as 36.55%.
As for `C=C(CO)C(CO[C@@H]1O[C@H](CO)[C@@H](O)[C@H](O)[C@H]1O)OC(=O)/C=C/c1ccc(O)c(O)c1` (stereo partly drawn) [PUBESCENOSIDE B], the Activity is listed as 27.3%.
Under `CC(=O)Oc1ccccc1C(=O)O` [ASPIRIN] stands 44.7%.

These data come from ChEMBL document CHEMBL1158706, “Hemiterpene glucosides with anti-platelet aggregation activities from Ilex pubescens” (2005).
